Usually melting point stands for the temperature of the solid-liquid transition. `C[n+]1ccccc1C1CCCCC1=O.[I-]` (centres unmarked) came in with a melting point of 151 to 153 °C.

`C[n+]1ccccc1CC(=O)c1cccc(Br)c1.[I-]` gave a melting point of 217 to 218 °C.

With `C[n+]1ccccc1CC(=O)c1ccccc1Br.[I-]`, the melting point was in the range of 204 to 205 °C.

The compound `COc1ccc(C(=O)CC2CCCCN2C)cc1.I` (centres unmarked) displayed a melting point of 201 to 203 °C.

For `CN1CCCCC1CC(=O)c1ccc(Br)cc1.I` (centres unmarked), the melting point was 182 to 184 °C.

Take `CN1CCCCC1C1CCCCC1=O.I` (centres unmarked): the melting point was in the range of 160 to 162 °C.

Compound `CN1CCCCC1CC(=O)c1cccc(Br)c1.I` (centres unmarked) returned a melting point of 134 to 136 °C.

The compound `CN1CCCCC1CC(=O)c1ccccc1Br.I` (centres unmarked) gave a melting point of 163.5 to 164 °C.

`C[n+]1ccccc1C=C(c1ccccc1)N1CCCC1.[I-]` came in with a melting point of 200 to 202 °C.

In the case of `C[n+]1c(C=C(c2ccccc2)N2CCOCC2)cccc1N1CCOCC1.[I-]`, the melting point was in the range of 214 to 216 °C.

In turn, `C[n+]1c(CC(=O)c2ccccc2)cccc1CC(=O)c1ccccc1.[I-]` returned a melting point of 197 to 199 °C.

Turning to `COc1ccc(C(=O)Cc2cccc[n+]2C)cc1.F[P-](F)(F)(F)(F)F`, the melting point lay within 168 to 170 °C.

`Cc1ccc(C(=O)Cc2cccc(CC(=O)c3ccccc3)[n+]2C)cc1.[I-]` returned a melting point of 205 to 206 °C.

Take `C[n+]1c(CC(=O)c2ccccc2)cccc1CC(=O)c1ccc(Cl)cc1.O=S(=O)([O-])C(F)(F)F`: the melting point is 199 to 201 °C.

As for `C[n+]1c(CC(=O)c2ccccc2)cccc1CC(=O)c1ccc(Cl)cc1.[I-]`, the melting point fell in the range of 213 to 215 °C.

Compound `C[n+]1c(CC(=O)c2ccccc2)cccc1CC(=O)c1ccc(F)cc1.[I-]` gave a melting point of 220 to 222 °C.

`COc1ccc(C(=O)Cc2cccc[n+]2C)cc1.[I-]` yielded a melting point of 214 to 216 °C.

Compound `C[n+]1c(CC(=O)c2ccccc2)cccc1CC(=O)c1ccc(Br)cc1.[I-]` came in with a melting point of 218 to 220 °C.

In turn, `C[n+]1c(CC(=O)c2ccc(Cl)cc2)cccc1CC(=O)c1ccc(Br)cc1.O=S(=O)([O-])C(F)(F)F` had a melting point of 226 to 228 °C.

In the case of `C[n+]1c(CC(=O)c2ccc(Cl)cc2)cccc1CC(=O)c1ccc(Br)cc1.[I-]`, the melting point lay within 226 to 227 °C.

`COc1ccc(C(=O)Cc2cccc(CC(=O)c3ccccc3)[n+]2C)cc1.O=S(=O)([O-])C(F)(F)F` displayed a melting point of 193 to 195 °C.

As for `COc1ccc(C(=O)Cc2cccc(CC(=O)c3ccccc3)[n+]2C)cc1.[I-]`, the melting point lay within 203 to 205 °C.

In the case of `COc1ccc(C(=O)Cc2cccc(CC(=O)c3ccc(F)cc3)[n+]2C)cc1.O=S(=O)([O-])C(F)(F)F`, the melting point is 208 to 210 °C.

Compound `COc1ccc(C(=O)Cc2cccc(CC(=O)c3ccc(F)cc3)[n+]2C)cc1.[I-]` gave a melting point of 219 to 220 °C.

Consider `C[n+]1ccccc1CC(=O)c1ccc(Cl)cc1.F[P-](F)(F)(F)(F)F`, for which the melting point lay within 152 to 154 °C.

`Cc1ccc(C(=O)CC2CCCC(CC(=O)c3ccccc3)N2C)cc1.I` (centres unmarked) showed a melting point of 192 to 193 °C.

In turn, `CN1C(CC(=O)c2ccccc2)CCCC1CC(=O)c1ccc(Cl)cc1.I` (centres unmarked) gave a melting point of 152 to 154 °C.

In the case of `CN1C(CC(=O)c2ccccc2)CCCC1CC(=O)c1ccc(F)cc1.I` (centres unmarked), the melting point is 152 to 154 °C.

With `CN1C(CC(=O)c2ccc(Cl)cc2)CCCC1CC(=O)c1ccc(Br)cc1.I` (centres unmarked), the melting point fell in the range of 200 to 202 °C.

As to `C[n+]1ccccc1CC(=O)c1ccc(Cl)cc1.[I-]`, the melting point lay within 212 to 214 °C.

Compound `C[n+]1ccccc1CC(=O)c1ccc(Br)cc1.F[P-](F)(F)(F)(F)F` showed a melting point of 185 to 187 °C.

In the case of `C[n+]1ccccc1CC(=O)c1ccc(Br)cc1.[I-]`, the melting point lay within 222 to 224 °C.

These data come from patent US6734196B2, “Substituted pyridine or piperidine compounds” (Les Laboratoires Servier, priority 1999, dated 2004).
